# Results reported in patent US20090061009A1, “Composition and Method of Treatment of Bacterial Infections” (priority 2007, published 2009).
# Counter-ions that a name gives are not always drawn.
# What was measured:
# glioblastoma = test: Glioblastoma model, survival; format: in vivo; conditions: day 100 after tumor inoculation, same dose and schedule
# [1] = test system: Mycobacterium tuberculosis strain H37Rv (ATCC 27294); test: Tuberculosis model in BALB/c mice; format: in vivo; conditions: for Survival rate, % D14: day 14; for Survival rate, % D28 / Bacterial count in lungs, log CFU D28: day 28; for Bacterial count in lungs, log CFU D28: 10.06 ± 0.304 at D1
# MAC = conditions: 100 mg/kg IM five days a week for four weeks; cited from earlier work
# E. coli ATCC 25922 = test: Sepsis (septicemia) model in mice; format: in vivo
# Experimental: Sepsis (septicemia) model: Escherichia coli O157 was chosen as a model infection being one of the most common nosocomial pathogens. Female BALB/C mice were infected by the intraperitoneal injection of 2.5×10^8 cells (LD90). Treatment started 2 hours post bacterial inoculation
# E. coli ATCC 25922 was stored at −80° C. until use in this study. The bacterium was transferred onto Trypticase Soy Agar (TSA) plates and incubated for 18 h at 37° C. A suspension of the bacterium was prepared in PBS and added to sterile 5% hog mucin. An aliquot of the suspension was added to 5% hog gastric mucin to obtain the required concentration of inoculum (3.5×10^6 CFU/mL). Each mouse was inoculated with 0.5 mL of the appropriate inoculum preparation by IP injection. 2 hours later mice were treated with a single injection of the appropriate concentration of Gentamicin sulfate in dose 10 mg/kg (calculated by base).
# [2] = BALB/c mice, 100 mg/kg IP 2/week, cumulative 800 mg/kg SM base
# [3] = BALB/c mice, 200 mg/kg IP 5/week, cumulative 4000 mg/kg SM base
compound,measurement,setting,value
"COc1cccc2c1C(=O)c1c(O)c3c(c(O)c1C2=O)C[C@@](O)(C(=O)CO)C[C@@H]3O[C@H]1C[C@H](N)[C@H](O)[C@H](C)O1 [Doxorubicin in solution, Doxorubicin]",survival rate,glioblastoma,0%
"[H]/N=C(/N)N[C@H]1[C@H](O)[C@@H](O)[C@H](O[C@@H]2O[C@@H](C)[C@](O)(C=O)[C@H]2O[C@@H]2O[C@@H](CO)[C@H](O)[C@@H](O)[C@@H]2NC)[C@@H](N/C(N)=N\[H])[C@@H]1O [SM USP solution, Streptomycin sulfate]",survival rate,[1]; 800 mg cumulative dose of SM,58%
same,"Survival rate, % D14",[1]; [2],83%
same,"Survival rate, % D28",[1]; [2],58%
same,"Bacterial count in lungs, log CFU D28","[1]; BALB/c mice, 100 mg/kg IP 2/week",8.37 ± 0.367 log CFU
same,"Bacterial count in lungs, log CFU D56","[1]; BALB/c mice, 200 mg/kg IP 5/week for 28 days, day 56",8.86 ± 0.18 log CFU
same,"Survival rate, % D14",[1]; [3],92%
same,"Survival rate, % D28",[1]; [3],92%
same,"Bacterial count in lungs, log CFU D28","[1]; BALB/c mice, 200 mg/kg IP 5/week",7.57 ± 0.268 log CFU
same,survival rate,"[1]; positive control, cumulative 4000 mg SM",92%
[H]/N=C(/N)N[C@H]1[C@H](O)[C@@H](O)[C@H](O[C@@H]2O[C@@H](C)[C@](O)(C=O)[C@H]2O[C@@H]2O[C@@H](CO)[C@H](O)[C@@H](O)[C@@H]2NC)[C@@H](N/C(N)=N\[H])[C@@H]1O [Streptomycin],"bacterial counts of MAC from spleen, lungs and liver",MAC,significant reduction
Gentamicin sulfate [Gentamicin sulfate solution],Day of death after inoculation: 2 (number of deaths),"E. coli ATCC 25922; 10 mg/kg single injection, day 2",3
same,Day of death after inoculation: 3 (number of deaths),"E. coli ATCC 25922; 10 mg/kg single injection, day 3",1
same,Day of death after inoculation: 4 (number of deaths),"E. coli ATCC 25922; 10 mg/kg single injection, day 4",1
same,Survival rates,"E. coli ATCC 25922; E.Coli induced septicemia in mice, untreated 11%",50%
same,No. dead/No. treated,"E. coli ATCC 25922; mice, 1.8 × 10^6 E. coli per mouse IP, single injection 10 mg/kg (as base) 2 hours later, observed six days",5/10
